Patent US20100297256A1, “METHODS AND COMPOSITIONS FOR INHIBITING INTEGRINS USING TELLURIUM-CONTAINING COMPOUNDS” (priority 2007, published 2010)

Tests used:
αVβ3 integrin [1] = target: T1, αVβ3 integrin (Homo sapiens, UniProt P05106+P06756); assay: Integrin-WNV attachment assay; format: binding; conditions: purified integrin 75 ng/well
T1 construct: purchased Chemicon
Method: A solid-phase binding assay was performed according to a method previously described by Sharma et al [Virology, 239:150, 1997]. WNV was diluted in 50 mM carbonate-bicarbonate buffer, pH 9.6, to a concentration of 10^6 PFU/ml, and 100 μl aliquots were added to the wells of 96-well Nunc-Maxisorp ELISA plates. The plates were incubated overnight at 4° C., washed three times with washing buffer (20 mM Tris-HCL [pH 7.5], 150 mM NaCl), and then blocked for 2 hours at room temperature with […] of blocking buffer containing 20 mM Tris-HCL, pH 7.5, 150 mM NaCl, 5% Bovine serum albumin (BSA). The wells were then washed again, and purified αVβ3 integrin (75 ng/well), diluted in binding buffer (20 mM Tris-HCL, pH 7.5, 150 mM NaCl, 5% BSA, 2 mM CaCl2, 1 mM MgCl2) containing various concentrations of AS101, was added to the wells. After 2 hours of incubation at 37° C., the wells were washed three times with washing buffer. Bound integrin was detected with mouse monoclonal anti-human αVβ3 integrin antibody (Millipore [Chemicon]) diluted 1:1000 in 100 μl binding buffer. Incubation continued for 1 hour at 37 C, and then the wells were washed again. […] Colour development was stopped by the addition of 1 N H2SO4, and plates were read in a spectrophotometer at 492 nm.

Akt = assay: Western blot analysis of Akt; format: cell-based, human
Method: Phosphorylation of Akt was determined by Western blot analysis.

West Nile Virus (WNV) [2] = assay: Cell-free virus assay; format: cell-based; conditions: Vero cells, 5 and 10 μg/ml 1 hour before infection, 1 hour after adsorption
Method: Cells were plated 20 hours before virus infection in 6-well plates at a density of 2×10^5 cells/plate, and treated with AS101 (1-10 μg/ml) for 1 hour or for 5-10 minutes before WNV infection. The cells were infected at MOI=5 PFU/cell and incubated for 1 hour at 37° C., 5% CO2. Supernatants were collected immediately following the incubation, and the concentration of the virus which remained cell-free in the culture supernatant was measured by viral plaque assay, as described above.

West Nile Virus (WNV) [3] = assay: WNV plaque assay; format: cell-based; conditions: Vero cells, added 1 hour before inoculation
Method: Vero cells were seeded at a density of 1×10^6 cells in 10 cm dishes 20 hours prior to infection. WNV (5×10^3 PFU/ml, MOI=0.005 PFU/cell) was added to the cultures, and the plates were incubated for 1 hour at 37° C. with 5% CO2. After incubation, the medium was removed and the cells were washed 6 times with PBS and overlaid with fresh EMEM medium containing 4% FCS (fetal calf serum) and 1% (w/v) agar. Cells were then incubated at 37° C. with 5% CO2 for 3 days until plaques appeared, and then fixed and stained with a solution of 0.5% crystal violet in a mixture of formalin (1% v/v) and ethanol (1.65% v/v). Plaques were counted over a light box after removal of the agar overlay.

αVβ3 integrin [4] = assay: Anti-αVβ3 integrin antibody binding assay; format: cell-based
Method: An anti-αVβ3 integrin mediated cell adhesion kit (Millipore [Chemicon], Temecula, Calif.) was used to determine cells attachment to anti-αVβ3 integrin antibody, in the presence or absence of AS101. Briefly, Vero or BGM cells were mixed with PBS or with AS101 (1-10 μg/ml) and were added to anti-αVβ3 integrin coated 96-well plates, and to a control 96-well plate (containing anti-mouse IgG) in triplicate. The plates were incubated at 37° C., 5% CO2, for 2 hours, and the cells were then stained and extracted according to the kit instructions, using the staining solution and extraction buffer supplied with the kit. Cell concentration was measured by a spectrophotometer at 540 nm.

West Nile Virus (WNV) [5] = assay: Western blot analysis of WNV protein synthesis (WNV-E protein); format: cell-based; conditions: Vero cells
Method: Vero cells grown in 6-well plates (2×10^5 cells/well) were harvested and total cell extracts were prepared by suspension in 50 μl of ice-cold lysis buffer containing 50 mM Tris (pH 8.0), 150 mM NaCl, 1% NP-40, 0.1% SDS, 5 mM EDTA, 0.2 mM PMSF, 50 mM NaF, […] sodium vanadate, 5 mg/ml aprotinin and 5 mg/ml leupeptin. Cell lysates were boiled for 5 minutes and electrophoresed on 8% SDS-polyacrylamide gel, and were then transferred to a nitrocellulose membrane which was then incubated consecutively with a monoclonal antibody against the WNV envelope (WNV-E) protein and an anti-β-actin or anti-tubulin monoclonal antibody. The Nitrocellulose membranes were developed using horseradish peroxidase-conjugated secondary antibodies and the ECL detection system (Pierce, Rockford, Ill.). Quantitative evaluation of E protein calibrated against tubulin or β-actin was done by scanning and analysis using the Image-J program (www.//rsb.info.nih.gov/ij).

[6] = system: leukemic cells from AML patients; assay: Sensitization of leukemic cells from AML patients to chemotherapy; format: cell-based, human
Method: 2×10^4 per 200 μl cells were seeded in 96-microwell flat bottom plates. After 24 hours, the tested compound(s) (e.g., AS101, ARA-C, DTNB, anti-VLA-4 antibody) was added, and the cells were incubated overnight with the tested compound(s). The XTT solution was then added and the cells were incubated for 4 hours at 37° C. Cell viability was than evaluated by measuring absorbance at 450 nm using a Microplate Spectrophotometer (Spectra MAX Plus, Molecular Devices).
Bone marrow samples from patients diagnosed, with AML, but not yet treated, were obtained and grown in vitro. The leukemic cells obtained therefrom were tested for levels of VLA-4 and VLA-5 via fluorescence based cytometry, using FITC (fluorescein isothiocyanate)-conjugated anti-VLA-4 and anti-VLA-5 antibodies, using standard procedures. The cells were grown on both fibronectin and BSA, and the effect of AS101 on chemotherapy resistance was measured.

T1 sequence (P06756 31-889 limits assumed): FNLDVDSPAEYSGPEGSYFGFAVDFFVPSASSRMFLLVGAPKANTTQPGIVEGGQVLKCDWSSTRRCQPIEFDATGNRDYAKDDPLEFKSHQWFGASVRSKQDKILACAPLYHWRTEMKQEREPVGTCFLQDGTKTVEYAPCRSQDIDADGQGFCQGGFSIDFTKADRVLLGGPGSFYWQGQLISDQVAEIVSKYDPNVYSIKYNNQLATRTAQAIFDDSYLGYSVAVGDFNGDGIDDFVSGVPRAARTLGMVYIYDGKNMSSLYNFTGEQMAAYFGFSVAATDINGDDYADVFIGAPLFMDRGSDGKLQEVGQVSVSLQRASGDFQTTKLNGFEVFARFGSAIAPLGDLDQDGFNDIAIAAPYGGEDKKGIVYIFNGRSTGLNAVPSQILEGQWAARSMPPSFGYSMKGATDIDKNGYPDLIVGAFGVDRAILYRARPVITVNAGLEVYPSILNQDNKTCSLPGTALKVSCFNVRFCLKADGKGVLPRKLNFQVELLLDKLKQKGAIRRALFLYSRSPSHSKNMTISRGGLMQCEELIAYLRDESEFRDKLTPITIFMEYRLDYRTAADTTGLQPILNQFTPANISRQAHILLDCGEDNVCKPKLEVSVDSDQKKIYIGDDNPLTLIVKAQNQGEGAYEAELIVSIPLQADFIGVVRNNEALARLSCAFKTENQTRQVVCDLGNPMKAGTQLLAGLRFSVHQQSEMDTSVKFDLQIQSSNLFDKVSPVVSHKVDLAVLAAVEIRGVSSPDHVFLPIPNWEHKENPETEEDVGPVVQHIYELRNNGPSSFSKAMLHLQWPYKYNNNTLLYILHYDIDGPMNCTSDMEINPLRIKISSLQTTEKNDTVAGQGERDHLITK
T1 sequence (P06756 891-1048 limits assumed): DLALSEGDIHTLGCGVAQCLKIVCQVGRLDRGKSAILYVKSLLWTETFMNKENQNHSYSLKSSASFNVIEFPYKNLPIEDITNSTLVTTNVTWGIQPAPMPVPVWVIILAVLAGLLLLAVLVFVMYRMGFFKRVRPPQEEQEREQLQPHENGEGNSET
T1 sequence (P05106 27-788): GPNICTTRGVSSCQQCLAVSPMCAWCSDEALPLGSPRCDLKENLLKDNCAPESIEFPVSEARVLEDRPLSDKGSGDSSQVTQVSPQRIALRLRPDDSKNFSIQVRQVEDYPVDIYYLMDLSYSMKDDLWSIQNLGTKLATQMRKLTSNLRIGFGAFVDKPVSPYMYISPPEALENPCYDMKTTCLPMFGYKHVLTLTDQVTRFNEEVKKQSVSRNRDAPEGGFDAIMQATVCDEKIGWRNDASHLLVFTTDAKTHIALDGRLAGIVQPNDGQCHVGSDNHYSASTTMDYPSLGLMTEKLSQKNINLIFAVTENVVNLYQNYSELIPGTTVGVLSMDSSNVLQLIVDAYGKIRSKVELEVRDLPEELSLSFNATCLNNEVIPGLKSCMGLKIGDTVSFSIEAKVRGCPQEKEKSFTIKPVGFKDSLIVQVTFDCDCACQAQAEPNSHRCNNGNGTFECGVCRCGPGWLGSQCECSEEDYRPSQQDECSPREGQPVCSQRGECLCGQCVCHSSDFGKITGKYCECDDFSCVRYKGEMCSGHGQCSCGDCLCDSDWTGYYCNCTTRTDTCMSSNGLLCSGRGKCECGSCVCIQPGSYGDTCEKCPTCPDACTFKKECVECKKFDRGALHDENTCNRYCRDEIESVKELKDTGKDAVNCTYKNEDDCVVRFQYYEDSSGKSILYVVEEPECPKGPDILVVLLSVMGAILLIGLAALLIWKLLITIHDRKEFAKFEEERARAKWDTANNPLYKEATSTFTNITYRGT

Cl[TeH]1(Cl)(Cl)OCCO1 [AS101, ammonium trichloro(dioxyethylene-O,O′)tellurate]
attachment of αVβ3 integrin to immobilized WNV (αVβ3 integrin [1]): directly inhibited the attachment of αVβ3 integrin to WNV in a dose dependent manner
total amounts of Akt (Akt; U937): remained unchanged
level of phosphorylated Akt (pAkt) (Akt; U937 on fibronectin, dose-dependent): reduced the level of phosphorylated Akt
WNV infectious units in culture supernatant relative to untreated cells (West Nile Virus (WNV) [2]): approximately twice
WNV-induced plaque formation (West Nile Virus (WNV) [3]): dose-dependent protective effect against the plaque formation
inhibition of binding of anti-αVβ3 integrin antibody to cells (αVβ3 integrin [4]; BGM cells, 10 μg/ml, data not shown): 64%
binding of anti-αVβ3 integrin antibody to cells (αVβ3 integrin [4]; Vero cells, 1-10 μg/ml): inhibited the binding of anti-αVβ3 integrin antibody to Vero cells in a dose-dependent manner
level of cell-bound WNV-E protein (virus attachment) (West Nile Virus (WNV) [5]; 5 μg/ml, 5 and 15 minutes after virus adsorption): marked reduced the level of WNV-E protein
inhibition of virus protein (WNV-E) expression vs untreated cells (West Nile Virus (WNV) [5]; 2 and 5 μg/ml, 8 hours after infection): 2-3 fold
inhibition of resistance to ARA-C ([6]; 8 AML patients with high VLA-4 levels, on fibronectin, 0.5 or 1 μg/ml AS101): inhibited the resistance to ARA-C of high-VLA-4 cells on fibronectin in a dose-dependent manner
inhibition of resistance to ARA-C ([6]; Patient B, high VLA-4, on fibronectin): inhibited the resistance to ARA-C of high-VLA-4 cells on fibronectin in a dose-dependent manner
sensitization to ARA-C, combination of AS101 and DTNB vs either alone ([6]; high-VLA-4 cells on fibronectin): did not sensitize high-VLA-4 cells grown on fibronectin to a greater degree than did either AS101 or DTNB alone
effect on viability of cells exposed to ARA-C, alone or in combination ([6]; low VLA-4 leukemic cells, fibronectin-coated plates): no effect either alone or in combination
